# Experiments:
# [1] = Stability investigation by NMR spectroscopy (hydrolysis in buffer/media); assay type: physicochemical; conditions: for Hydrolysis/Stability pH 7.5: 10 mM Hepes or 10 mM Tris, pH 7.4; for Hydrolysis/Stability pH 7.5 / Hydrolysis/Stability pH 5.5: 107 mM NaCl; for Hydrolysis/Stability pH 5.5: 10 mM Mes; for long-term stability in aqueous solution: slightly acidic and neutral pH, 24 h and longer, NMR
# From the text: POMs of the globular Keggin and planar Anderson archetype and with varying charge status from -3 to -8 (Fig. 1) were selected. To offset the known [XW12O40]^n- (X = hetero-ion) hydrolysis propensity in aqueous solution, most pronounced at neutral pH, more highly charged mixed-metal derivatives (Fig. 1,lefthand side) were also included. The latter are obtained by hydrolytic removal of one W=O^4+ unit from the Keggin structure and the subsequent incorporation of an addenda metal to fill the cavity of the monolacunary intermediate. In detail, the following POM anions were studied (as acid or sodium, potassium, or tetraalkylammonium salts), see Fig. 1: [α-P^VW^VI12O40]^3- ([PW12]^3-), [α-Si^IVW^VI12O40]^4- ([SiW12]^4-), [α-Al^IIIW^VI12O40]^5- ([AlW12]^5-), [α-P^VV^VW^VI11O40]^4- ([PVW11]^4-), [α-Si^IVMo^VIW^VI11O40]^4- ([SiMoW11]^4-), [α- HAl^IIIGe^IVW^VI11O39(H2O)]^5- ([GeAlW11]^5-), [{α-P^VW^VI11O39Zr^IV(µ-OH)(H2O)}2]^8- ([(PZrW11)2]^8-), and [Al^III(OH)6Mo^VI6O18]^3- ([AlMo6]^3-). First, their long-term (24 h and longer) stability in aqueous solution (slightly acidic and neutral) was investigated by applying the active NMR nuclei in their composition (see).
# [2] = Transport experiments in CF-loaded zwitterionic EYPC vesicles (CF fluorescence, Hill analysis); assay type: biochemical; design: key to membrane transport activity: - - -: No detectable activity at pH 5.5 and 7.4; conditions: for membrane transport activity: pH 5.5 and 7.4, heptaArg, protamine, polyArg (for [AlMo6]^3- heptaArg and protamine only); for behaviour towards liposomes at strongly acidic pH: pH 1.2
# Experimental: The dry film was rehydrated with 1 mL buffer (50 mM CF, 10 mM Hepes, pH 7.4 or 50 mM CF, 10 mM Tris, pH 7.4) for 30 min at room temperature, subjected to freeze-thaw cycles (7 times) and extrusions (15 times) through a polycarbonate membrane (pore size 100 nm). Extravesicular components were removed by size exclusion chromatography (NAP-25 column Sephadex G-25 DNA grade) with 10 mM Hepes, 107 mM NaCl, pH 7.4 or 10 mM Hepes, 107 mM NaCl, pH 7.4. Phospholipid concentration was calculated by the Stewart assay. […]
# Vesicles stock solutions (5-10 µL) were diluted with the corresponding buffer in a disposable plastic cuvette and gently stirred (total volume 2000 µL, final lipid concentration 13 µM). […] Fluorescence intensities were normalized to fractional emission as: I(t) = (It −I0)/(I∞ −I0) [formula]
# Where I0 = It before POM addition and […] = I∞ after lysis. For Hill analysis, It before lysis was defined as transport activity, Y, and plotted against POM concentration, c, and fitted to the Hill equation (2), to afford the activity in absence of POM, Y0, the maximal activity, Ymax, the concentration needed to achieve 50 % of maximal activity, EC50, and the Hill coefficient, n. Y = Y0 + (Ymax −Y0)/(1 + (((EC50)/(c)))^n) [formula]
# In the transport measurements, where different carriers (POMs) are tested with the same cargo, the activator efficiency (E) is determined by their capacity to transport the impermeable cargo to the intravesicular region and is characterized by Ymax, its maximal activity, and EC50, the effective activator concentration. An ideal carrier reaches high Ymax at low EC50. To count both factors, the activator efficiency is defined as: E = Ymax (pEC50)/(f) [formula] were pEC50 is the negative logarithm of the EC50, and fa scaling factor, which was set to 20.6 to calibrate the highest (previously known) activation efficiency, E, as 10.
# The capability of POMs to act as membrane carriers was explored first in large unilamellar vesicles (LUVs), loaded with carboxyfluorescein (CF). We selected […] representative cationic peptides, heptaarginine (heptaArg), heptalysine (heptaLys), protamine, and polyarginine (polyArg), as test cargos. Inside the LUVs, the CF dye was encapsulated at self-quenching concentrations. With a suitable carrier, heptaArg can be taken up into the vesicles, bind with entrapped CF, and shuttle back to the exterior, spreading the previously quenched CF, and thereby restoring its fluorescence (Fig. 3). In the time-resolved fluorescence experiments, to test whether a POM acts as molecular carrier, the CF emission was continuously monitored during the addition of the inorganic carrier (t = 60 s) and after injection the impermeable heptaArg (t = 120 s). At the end of the experiment (t = 600 s), the surfactant Triton X-100 was added to release all the entrapped CF and allow normalization of the intensity data (Fig. 4a).
# [3] = HPTS/DPX assay of membrane transport in EYPC vesicles; assay type: biochemical; conditions: Measured by HPTS/DPX assay
# [4] = EYPC vesicles, 0.1 µM polyArg, neutral pH 7.4
# [5] = EYPC vesicles, 0.1 µM polyArg, neutral pH 7.4, read-out: PolyArg EC50
# [6] = EYPC vesicles, 1 µM protamine, neutral pH 7.4
# [7] = Tris-HCl pH 7.5 freshly prepared
compound,measurement,setting,value
"O=C(O)CCCc1ccc2ccc3cccc4ccc1c2c34 [PyBu^-, pyrenebutyrate, reference compound]",Hydrolysis/Stability pH 7.5,[1],stable
same,Hydrolysis/Stability pH 5.5,[1],stable
same,PolyArg E (activation efficiency),[2]; [4],8.5
same,PolyArg Ymax,[2]; [4],91%
same,EC50,[2]; [5],12 µM
same,Protamine E (activation efficiency),[2]; [6],5.3
same,Protamine Ymax,[2]; [6],77%
same,EC50,"[2]; EYPC vesicles, 1 µM protamine, neutral pH 7.4, read-out: Protamine EC50",39 µM
same,HeptaArg Ymax,"[2]; EYPC vesicles, 10 µM heptaArg, neutral pH 7.4",100%
same,HeptaArg E (activation efficiency),"[2]; EYPC vesicles, 10 µM heptaArg, neutral pH 7.4, E = Ymax(pEC50/f), f = 20.6",4.8
same,EC50,"[2]; EYPC vesicles, 10 µM heptaArg, neutral pH 7.4, read-out: HeptaArg EC50",100 µM
same,efficacy when the sequence of carrier-cargo addition was reversed,"[2]; heptaarginine 10 µM, Fig. 12",significantly reduces its activity
(C4H12N)4[α-HAl^IIIGe^IVW^VI11O39(H2O)]·11H2O [[GeAlW11]^5-],Hydrolysis/Stability pH 7.5,[1],stable
same,POM anions with % for parent (active) anion based on signals integration,[1]; Tris-HCl pH 7.5 after 1 day,[HAl^IIIGe^IVW^VI11O39(H2O)] ^4-
same,POM anions with % for parent (active) anion based on signals integration,[1]; [7],[HAl^IIIGe^IVW^VI11O39(H2O)] ^4-
same,long-term stability in aqueous solution,[1],stable at neutral pH
same,membrane transport activity,[2]; EYPC vesicles,- - -[j]
(Et2NH2)8[{α-P^VW^VI11O39Zr^IV(µ-OH)(H2O)}2]·7H2O [[(PZrW11)2]^8-],Hydrolysis/Stability pH 7.5,[1],stable
same,POM anions with % for parent (active) anion based on signals integration,[1]; Hepes pH 7.5 after 1 day,[{α-PW11O39Zr(µ-OH)(H2O)}2]^8-·(99 %) and [Zr(α-PW11O39)2]^10-
same,POM anions with % for parent (active) anion based on signals integration,[1]; Hepes pH 7.5 freshly prepared,[{α-PW11O39Zr(µ-OH)(H2O)}2]^8-·(99 %) and [Zr(α-PW11O39)2]^10-
same,membrane transport activity,[2]; EYPC vesicles,- - -[j]
B12Br12^2-,Hydrolysis/Stability pH 7.5,[1],stable
same,Hydrolysis/Stability pH 5.5,[1],stable
same,PolyArg E (activation efficiency),"[3]; 0.1 µM polyArg, pH 7.4",12
same,PolyArg Ymax,"[3]; 0.1 µM polyArg, pH 7.4",94%
same,EC50,"[3]; 0.1 µM polyArg, pH 7.4, read-out: PolyArg EC50",2.6 µM
same,Protamine E (activation efficiency),"[3]; 1 µM protamine, pH 7.4",8.0
same,Protamine Ymax,"[3]; 1 µM protamine, pH 7.4",84%
same,EC50,"[3]; 1 µM protamine, pH 7.4, read-out: Protamine EC50",11 µM
same,HeptaArg E (activation efficiency),"[3]; 10 µM heptaArg, pH 7.4",6.1
same,HeptaArg Ymax,"[3]; 10 µM heptaArg, pH 7.4",95%
same,EC50,"[3]; 10 µM heptaArg, pH 7.4, read-out: HeptaArg EC50",48 µM
K4[α-Si^IVW^VI12O40]·14H2O [[SiW12]^4-],Hydrolysis/Stability pH 7.5,[1],to [Si^VW^VI8O39]^8-
same,POM anions with % for parent (active) anion based on signals integration,[1]; Hepes pH 7.5 (time not given),"[Si^IVW^VI12O40]^4- and [Si^IVW^VInO39]^8- (high noise to signal ratio, correct integration of peak cannot be performed; but clearly [Si^IVW^VI11O39]^8- is predominant)"
same,hydrolysis above pH 4.5,[1],rapid hydrolysis
same,long-term stability in aqueous solution,[1],fully hydrolyzed
same,membrane transport activity,[2]; EYPC vesicles,- - -[jilt]
same,behaviour towards liposomes at strongly acidic pH,[2],"showed the desired cargo transport at acidic pH, without membrane disruption"
Na3[Al^III(OH)6Mo^VI6O18]·2H2O [[AlMo6]^3-],Hydrolysis/Stability pH 7.5,[1],stable
same,POM anions with % for parent (active) anion based on signals integration,[1]; Hepes pH 7.5 after 1 day,[Al^III(OH)6MO^VI6O18]^3-
same,POM anions with % for parent (active) anion based on signals integration,[1]; Hepes pH 7.5 freshly prepared,[Al^III(OH)6MO^VI6O18]^3-
same,PolyArg E (activation efficiency),[2]; [4],3.1
same,PolyArg Ymax,[2]; [4],33%
same,EC50,[2]; [5],11 µM
same,membrane transport activity,[2]; EYPC vesicles,- - -[j]
same,cargo transport in CF-loaded vesicles (qualitative),"[2]; LUVs loaded with CF, added cargo","incipient transport activity, but only for polyarginine as cargo"
Na3[α-P^VW^VI12O40]·nH2O [[PW12]^3-],Hydrolysis/Stability pH 5.5,[1],to [P^VW^VI11O39]^7-
same,% of hydrolysis product [P^VW^VI11O39]^7- based on signals integration,[1]; Mes pH 5.5 after 1 day,61%
same,POM anions with % for parent (active) anion based on signals integration,[1]; Mes pH 5.5 after 1 day,5%
same,% of hydrolysis product [P^VW^VI11O39]^7- based on signals integration,[1]; Mes pH 5.5 freshly prepared,61%
same,POM anions with % for parent (active) anion based on signals integration,[1]; Mes pH 5.5 freshly prepared,4%
same,POM anions with % for parent (active) anion based on signals integration,[1]; NaOAc/HOAc pH 4 after 1 day,[P^VW^VI12O40]^3- (28 %) and intermediate anions
same,POM anions with % for parent (active) anion based on signals integration,[1]; NaOAc/HOAc pH 4 freshly prepared,[P^VW^VI12O40]^3- (30 %) and intermediate anions
same,hydrolysis above pH 4.5,[1],rapid hydrolysis
same,long-term stability in aqueous solution,[1],fully hydrolyzed
same,membrane transport activity,[2]; EYPC vesicles,"- - -[j,k]"
same,behaviour towards liposomes at strongly acidic pH,[2],strong interaction and membrane disruption
Na5[α-Al^IIIW^VI12O40]·12H2O [[AlW12]^5-],Hydrolysis/Stability pH 7.5,[1],stable
same,POM anions with % for parent (active) anion based on signals integration,[1]; Tris-HCl pH 7.5 after 1 day,[Al^IIIW^VI12O40]^5-
same,POM anions with % for parent (active) anion based on signals integration,[1]; [7],[Al^IIIW^VI12O40]^5-
same,long-term stability in aqueous solution,[1],stable at neutral pH
same,membrane transport activity,[2]; EYPC vesicles,- - -[j]

# — patent EP4483904A1, “POLYOXOMETALATES AS MEMBRANE CARRIERS” (Universität Wien, priority 2023, dated 2025)
